Source: patent US20220041588A1, “SUBSTITUTED IMIDAZO[1,2-A]PYRIDINE AND [1,2,4]TRIAZOLO[1,5-A]PYRIDINE COMPOUNDS AS RET KINASE INHIBITORS” (FOCHON PHARMACEUTICALS, LTD., priority 2018, published 2022)

How the values were obtained:
TT (RET C634W) cells = assay: Cell proliferation assay (MTS), TT cells; type: cell-based; details: 72 h incubation, MTS readout
In short: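 TT cells (F12K, 10% FBS) and LC-2/ad cells (HamF12:RPMI1640 1:1, 10% FBS, 2 mM glutamine) were seeded at 5000/well for 24 h. They were then treated 72 h at 37 °C with nine final concentrations from 10000 to 1.5 nM. MTS was read after 2 h, SDS-stopped, at 490 nm (650 nm reference), and IC50 calculated.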

[1] = system: LC-2/ad (CCDCl6-RET) cells; assay: Cell proliferation assay (MTS), LC-2/ad cells; type: cell-based; details: Homo sapiens, LC-2-ad, 72 h, LC-2/ad cells (CCDCl6-RET), 72 h incubation, MTS readout
Procedure: MTS testing kit was purchased from Promega. The RPMI-1640, F12, F12K, Fetal bovine serum and Penicillin-Streptomycin were purchased from BI. Glutamine and Dimethyl sulfoxide (DMSO) were purchased from Sigma. TT cells were cultured in F12K supplemented with 10% FBS and LC-2/ad cells were cultured in HamF12: RPMI1640 (1:1) supplemented with 10% FBS and 2 mM Glutamine.
To investigate whether a compound is able to inhibit the activity of RET fusion and/or mutation in cells, a mechanism-based assay using TT (RET C634W) and LC-2/ad (CCDCl6-RET) cell lines was developed. In this assay, the inhibition of RET fusion and/or mutation was reflected by the inhibition of cell proliferation of TT and LC-2/ad cells. Cells were plated into 96-well plates at the optimized cell density (TT: 5000 cells/well; LC-2/ad: 5000 cells/well). Plates were incubated at 37° C., with 5% CO2 for 24 h. Compounds were serially diluted and added to the plates with the final concentrations as 10000, 3333.3, 1111.1, […], 123.5, 41.2, 13.7, 4.6 and 1.5 nM. Plates were incubated at 37° C., with 5% CO2 for 72 h. An aliquot of 20 μL MTS/100 μL medium mixture solution were added to each well and the plates were incubated for exactly 2 h. The reaction was stopped by adding 25 μL 10% SDS to each well. The absorbance was measured by a microplate reader at 490 nm and 650 nm (reference wavelength). IC50 was calculated using GraphPad Prism 5.0.

Row | SMILES | IC50 (TT (RET C634W) cells; Homo sapiens, TT, 72 h) | IC50 [1] | IC50 (TT (RET C634W) cells)
1 | COc1ccc(CN2C3CC2CN(c2ccc(-c4cc(OCCC(O)C(F)(F)F)cc5ncc(C#N)n45)cn2)C3)cn1 (stereo not shown) [Example 59, 5-(6-(6-((6-Methoxypyridin-3-yl)methyl)-3,6-diazabicyclo[3.1.1]heptan-3-yl)pyridin-3-yl)-7-(4,4,4-trifluoro-3-hydroxybutoxy)imidazo[1,2-a]pyridine-3-carbonitrile] | 126 nM | 64 nM | –
2 | Cn1cc(-c2cc(-c3ccc(N4CCN(C(=O)Cc5ccccn5)CC4)cc3)n3c(C#N)cnc3c2)cn1 [Example 45, 7-(1-methyl-1H-pyrazol-4-yl)-5-(4-(4-(2-(pyridin-2-yl)acetyl)piperazin-1-yl)phenyl)imidazo[1,2-a]pyridine-3-carbonitrile] | 66 nM | 50 nM | –
3 | Cn1cc(-c2cc(-c3ccc(N4CCN(C(=O)[C@H](O)c5ccccc5)CC4)nc3)n3c(C#N)cnc3c2)cn1 [Example 7, (R)-5-(6-(4-(2-hydroxy-2-phenylace-tyl)piperazin-1-yl)pyridin-3-yl)-7-(1-methyl-1H-pyrazol-4-yl)imidazo[1,2-a]pyridine-3-carbonitrile] | 11 nM | 16 nM | –
4 | COC(CNC(=O)N1CCN(c2ccc(-c3cc(-c4cnn(C)c4)cc4ncc(C#N)n34)cn2)CC1)C(C)C (stereo not shown) [Example 50, 4-(5-(3-cyano-7-(1-methyl-1H-pyrazol-4-yl)imidazo[1,2-a]pyridin-5-yl)pyridin-2-yl)-N-(2-methoxy-3-methyl-butyl)piperazine-1-carboxamide] | 14 nM | 30 nM | –
5 | COc1ccc(C(=O)N2CCN(c3ccc(-c4cc(-c5cnn(C)c5)cc5ncc(C#N)n45)cn3)CC2)cn1 [Example 2, 5-(6-(4-(6-Methoxynicotinoyl)piperazin-1-yl)pyridin-3-yl)-7-(1-methyl-1H-pyrazol-4-yl)imidazo[1,2-a]pyridine-3-carbonitrile] | 63 nM | 54 nM | –
6 | COc1ccc(CN2CCN(c3ccc(-c4cc(-c5cnn(C)c5)cc5ncc(C#N)n45)cn3)CC2)cn1 [Example 6, 5-(6-(4-((6-methoxypyridin-3-yl)meth-yl)piperazin-1-yl)pyridin-3-yl)-7-(1-methyl-1H-pyrazol-4-yl)imidazo[1,2-a]pyridine-3-carbonitrile] | 42 nM | 44 nM | –
7 | COc1ccc(CN2C3CC2CN(c2ccc(-c4cc(OCC5(O)CC5)cc5ncc(C#N)n45)cn2)C3)cn1 [Example 57A, 7-((1-Hydroxycyclopropyl)methoxy)-5-(6-(6-((6-methoxypyridin-3-yl)methyl)-3,6-diazabicyclo[3.1.1]heptan-3-yl)pyridin-3-yl)imidazo[1,2-a]pyridine-3-carbonitrile] | – | 81 nM | 33 nM
8 | COc1ccc(CN2CCN(c3ccc(-c4cc(-c5cnn(CCOC(C)C)c5)cc5ncc(C#N)n45)cn3)CC2)cn1 [Example 27, 7-(1-(2-isopropoxyethyl)-1H-pyrazol-4-yl)-5-(6-(4-((6-methoxypyridin-3-yl)methyl)piperazin-1-yl)pyridin-3-yl) imidazo[1,2-a]pyridine-3-carbonitrile] | 65 nM | 39 nM | –
